pIC50: −log10 of the molar value.

This test relates to KRas G12D-mediated phosphorylation of ERK. Put plainly: Inhibition of KRas G12D-mediated phosphorylation of ERK in AGS cells. The test is classed as cell-based. The following applies: Homo sapiens; AGS cells expressing G12D, 3 hours, phospho-ERK normalized to GAPDH. In outline:
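In-cell Western: p-ERK Thr202/Tyr204 signal over GAPDH, as % of DMSO control, with IC50 from a 4-parameter curve. AGS cells seeded 40,000/well for 12-14 h, exposed to compound 3 h at 0.5% DMSO final, then formaldehyde-fixed and methanol-permeabilized.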

`CO[C@H]1CN2CCC[C@]2(COc2nc(N3CC4CCC(C3)N4)c3cnc(-c4cccc5cccc(Cl)c45)c(F)c3n2)C1` [Example 225, 4-((1R,5S)-3,8-diazabicyclo[3.2.1]octan-3-yl)-7-(8-chloronaphthalen-1-yl)-8-fluoro-2-((2-methoxytetrahydro-1H-pyrrolizin-7a(5H)-yl)methoxy)pyrido[4,3-d]pyrimidine bis-2,2,2-trifluoroacetate]: the pIC50 (commonly −log10 of the IC50, conventionally taken in molar units) was 5.51. Take `C#Cc1cccc2cccc(-c3ncc4c(N5C[C@H]6CC[C@@H](C5)N6)nc(OC[C@@H]5CCCN5C)nc4c3F)c12` [Example 206, 4-((1R,5S)-3,8-diazabicyclo[3.2.1]octan-3-yl)-7-(8-ethynylnaphthalen-1-yl)-8-fluoro-2-(((S)-1-methylpyrrolidin-2-yl)methoxy)pyrido[4,3-d]pyrimidine]: the pIC50 was 6.05.

`CN(C)C1CN(c2nc(N3C[C@H]4CC[C@@H](C3)N4)c3cnc(-c4cc(O)cc5ccccc45)c(F)c3n2)C1` [Example 120, 4-(4-((1R,5S)-3,8-diazabicyclo[3.2.1]octan-3-yl)-2-(3-(dimethylamino)azetidin-1-yl)-8-fluoropyrido[4,3-d]pyrimidin-7-yl)naphthalen-2-ol bis(2,2,2-trifluoroacetate)]: the pIC50 was 5.68. Consider `CCc1c(F)ccc2cccc(-c3ncc4c(N5C[C@H]6CC[C@@H](C5)N6)nc(OCC56CCCN5CCC6)nc4c3F)c12` [Example 426, 4-((1R,5S)-3,8-diazabicyclo[3.2.1]octan-3-yl)-7-(8-ethyl-7-fluoronaphthalen-1-yl)-8-fluoro-2-((hexahydro-1H-pyrrolizin-7a-yl)methoxy)pyrido[4,3-d]pyrimidine], for which the pIC50 is 6.64. Against the preceding compound, the pIC50 is 0.96 log units higher. `Fc1cccc(-c2ncc3c(N4C[C@H]5CC[C@@H](C4)N5)nc(OCC45CCCN4CCC5)nc3c2F)c1C1CC1` [Example 304, 4-((1R,5S)-3,8-diazabicyclo[3.2.1]octan-3-yl)-7-(2-cyclopropyl-3-fluorophenyl)-8-fluoro-2-((hexahydro-1H-pyrrolizin-7a-yl)methoxy)pyrido[4,3-d]pyrimidine] showed a negative-log IC50 (pIC50) of 5.85.

For the compound `COc1cccc2cccc(-c3ncc4c(N5C[C@H]6CC[C@@H](C5)N6)nc(OCC56CCCN5CCC6)nc4c3F)c12` [Example 236, 4-((1R,5S)-3,8-diazabicyclo[3.2.1]octan-3-yl)-8-fluoro-2-((hexahydro-1H-pyrrolizin-7a-yl)methoxy)-7-(8-methoxynaphthalen-1-yl)pyrido[4,3-d]pyrimidine], the pIC50 is 5.58. Against the preceding compound, the pIC50 is 0.27 log units lower. The value for `O=C(O[C@@H]1CN2CCC[C@]2(COc2nc(N3C[C@H]4CC[C@@H](C3)N4)c3cnc(-c4cccc5cccc(Cl)c45)c(F)c3n2)C1)N1CCOCC1` [Example 436, (2S,7aR)-7a-(((4-((1R,5S)-3,8-diazabicyclo[3.2.1]octan-3-yl)-7-(8-chloronaphthalen-1-yl)-8-fluoropyrido[4,3-d]pyrimidin-2-yl)oxy)methyl)hexahydro-1H-pyrrolizin-2-yl morpholine-4-carboxylate] was 5.40. The value for `COC(=O)NC[C@H]1CC[C@@]2(COc3nc(N4CC5CCC(C4)N5)c4cnc(-c5cccc6cccc(Cl)c56)c(F)c4n3)CCCN12` [Example 411, methyl ((7a-(((4-(3,8-diazabicyclo[3.2.1]octan-3-yl)-7-(8-chloronaphthalen-1-yl)-8-fluoropyrido[4,3-d]pyrimidin-2-yl)oxy)methyl)hexahydro-1H-pyrrolizin-3-yl)methyl)carbamate] was 6.13.

In turn, `CN1CCC[C@H]1COc1nc(N2C[C@H]3CC[C@@H](C2)N3)c2cnc(-c3cc(O)cc4ccccc34)c(Cl)c2n1` [Example 191, 4-(4-((1R,5S)-3,8-diazabicyclo[3.2.1]octan-3-yl)-8-chloro-2-(((S)-1-methylpyrrolidin-2-yl)methoxy)pyrido[4,3-d]pyrimidin-7-yl)naphthalen-2-ol] showed a pIC50 of 5.30.

`Cn1ccnc1CCOc1nc(N2C[C@H]3CC[C@@H](C2)N3)c2cnc(-c3cc(O)cc4ccccc34)c(F)c2n1` [Example 3, 4-(4-((1R,5S)-3,8-diazabicyclo[3.2.1]octan-3-yl)-8-fluoro-2-(2-(1-methyl-1H-imidazol-2-yl)ethoxy)pyrido[4,3-d]pyrimidin-7-yl)naphthalen-2-ol] gave a negative logarithm of the IC50 (pIC50) of 4.99. For the compound `CCc1cccc2cccc(-c3ncc4c(N5C[C@H]6CC[C@@H](C5)N6)nc(OCC56CCCN5CCC6)nc4c3F)c12` [Example 187, 4-((1R,5S)-3,8-diazabicyclo[3.2.1]octan-3-yl)-7-(8-ethylnaphthalen-1-yl)-8-fluoro-2-((tetrahydro-1H-pyrrolizin-7a(5H)-yl)methoxy)pyrido[4,3-d]pyrimidine], the pIC50 was 6.35. The value for `CC(C)c1ccccc1-c1ncc2c(N3CC4CCC(C3)N4)nc(OCC34CCCN3C[C@H](F)C4)nc2c1F` (stereo partly drawn) [Example 348, 4-((1R,5S)-3,8-diazabicyclo[3.2.1]octan-3-yl)-8-fluoro-2-((2-fluorotetrahydro-1H-pyrrolizin-7a(5H)-yl)methoxy)-7-(2-isopropylphenyl)pyrido[4,3-d]pyrimidine] was 6.11; that for `CC1CCc2cccc(-c3ncc4c(N5CC6CCC(C5)N6)nc(OC[C@@H]5CCCN5C)nc4c3F)c21` (stereo partly drawn) [Example 174, 4-((1R,5S)-3,8-diazabicyclo[3.2.1]octan-3-yl)-8-fluoro-7-(3-methyl-2,3-dihydro-1H-inden-4-yl)-2-(((S)-1-methylpyrrolidin-2-yl)methoxy)pyrido[4,3-d]pyrimidine] was 4.89; that for `CN(C)CCOc1nc(N2C[C@H]3CC[C@@H](C2)N3)c2cnc(-c3cc(O)cc4ccccc34)c(F)c2n1` [Example 18, 4-(4-((1R,5S)-3,8-diazabicyclo[3.2.1]octan-3-yl)-2-(2-(dimethylamino)ethoxy)-8-fluoropyrido[4,3-d]pyrimidin-7-yl)naphthalen-2-ol] was 5.43. In the case of `COc1nc(N2C[C@H]3CC[C@@H](C2)N3)c2cnc(-c3cc(O)cc4cccc(Cl)c34)c(F)c2n1` [Example 360, 4-(4-((1R,5S)-3,8-diazabicyclo[3.2.1]octan-3-yl)-8-fluoro-2-methoxypyrido[4,3-d]pyrimidin-7-yl)-5-chloronaphthalen-2-ol] it was 5.08; in that of `CCN1CCC[C@H]1COc1nc(N2C[C@H]3CC[C@@H](C2)N3)c2cnc(-c3cc(O)cc4ccccc34)c(F)c2n1` [Example 11, 4-(4-((1R,5S)-3,8-diazabicyclo[3.2.1]octan-3-yl)-2-(((S)-1-ethylpyrrolidin-2-yl)methoxy)-8-fluoropyrido[4,3-d]pyrimidin-7-yl)naphthalen-2-ol], 5.97; in that of `CC1CCCc2cccc(-c3ncc4c(N5CC6CCC(C5)N6)nc(OC[C@@H]5CCCN5C)nc4c3F)c21` (stereo partly drawn) [Example 133, 4-((1R,5S)-3,8-diazabicyclo[3.2.1]octan-3-yl)-8-fluoro-7-(8-methyl-5,6,7,8-tetrahydronaphthalen-1-yl)-2-(((S)-1-methylpyrrolidin-2-yl)methoxy)pyrido[4,3-d]pyrimidine], 5.69. `C=Cc1cccc2cccc(-c3ncc4c(N5C[C@H]6CC[C@@H](C5)N6)nc(OC[C@@H]5CCCN5C)nc4c3F)c12` [Example 201, 4-((1R,5S)-3,8-diazabicyclo[3.2.1]octan-3-yl)-8-fluoro-2-(((S)-1-methylpyrrolidin-2-yl)methoxy)-7-(8-vinylnaphthalen-1-yl)pyrido[4,3-d]pyrimidine] showed a pIC50 of 4.86. In the case of `Fc1c(-c2cccc(C(F)(F)F)c2C(F)(F)F)ncc2c(N3C[C@H]4CC[C@@H](C3)N4)nc(OCC34CCCN3CCC4)nc12` [Example 197, 4-((1R,5S)-3,8-diazabicyclo[3.2.1]octan-3-yl)-7-(2,3-bis(trifluoromethyl)phenyl)-8-fluoro-2-((tetrahydro-1H-pyrrolizin-7a(5H)-yl)methoxy)pyrido[4,3-d]pyrimidine] it was under 4.78. With `Oc1cc(-c2ncc3c(N4C[C@H]5CC[C@@H](C4)N5)ncnc3c2F)c2ccccc2c1` [Example 181, 4-(4-((1R,5S)-3,8-diazabicyclo[3.2.1]octan-3-yl)-8-fluoropyrido[4,3-d]pyrimidin-7-yl)naphthalen-2-ol], the negative-log IC50 (pIC50) is 4.89. Compound `CC(C)Cn1ccnc1CCOc1nc(N2C[C@H]3CC[C@@H](C2)N3)c2cnc(-c3cc(O)cc4ccccc34)c(F)c2n1` [Example 85, 4-(4-((1R,5S)-3,8-diazabicyclo[3.2.1]octan-3-yl)-8-fluoro-2-(2-(1-isobutyl-1H-imidazol-2-yl)ethoxy)pyrido[4,3-d]pyrimidin-7-yl)naphthalen-2-ol] gave a pIC50 of under 4.78. In turn, `Nc1ccc(CCOc2nc(N3C[C@H]4CC[C@@H](C3)N4)c3cnc(-c4cccc5cccc(Cl)c45)c(F)c3n2)cn1` [Example 141, 5-(2-((4-((1R,5S)-3,8-diazabicyclo[3.2.1]octan-3-yl)-7-(8-chloronaphthalen-1-yl)-8-fluoropyrido[4,3-d]pyrimidin-2-yl)oxy)ethyl)pyridin-2-amine] had a negative-log IC50 (pIC50) of under 4.78. In the case of `Oc1cc(-c2ncc3c(N4CC5CCC(C4)N5)nc(OCC45CCCN4C(CF)CC5)nc3c2F)c2ccccc2c1` (mixture of isomers) [Example 384, 4-(4-((1R,5S)-3,8-diazabicyclo[3.2.1]octan-3-yl)-8-fluoro-2-((3-(fluoromethyl)tetrahydro-1H-pyrrolizin-7a(5H)-yl)methoxy)pyrido[4,3-d]pyrimidin-7-yl)naphthalen-2-ol (mixture of isomers)] it was 6.40; in that of `Oc1cc(-c2ncc3c(N4C[C@H]5CC[C@@H](C4)N5)nc(OC[C@@]45CCCN4C[C@H](F)C5)nc3c2F)c2c(Cl)cccc2c1` [Example 251, 4-(4-((1R,5S)-3,8-diazabicyclo[3.2.1]octan-3-yl)-8-fluoro-2-(((2R,7aS)-2-fluorohexahydro-1H-pyrrolizin-7a-yl)methoxy)pyrido[4,3-d]pyrimidin-7-yl)-5-chloronaphthalen-2-ol], 7.99.
